SMILES strings stand for the structures.

The series can be described thus: Ring-closing metathesis (C=C formation) of fluorous-tagged (FDIPES) terminal dienes with Hoveyda-Grubbs 2nd generation catalyst (typically 2 mol%, 1-5 mol%), usually with 1,4-benzoquinone (4-10 mol%); quench P(CH2OH)3/Et3N/silica. To be noted: MTBE, 2.0 mM, 55.0 °C.

In turn, `COc1ccc([C@H]2COCC=CC[C@H](CO[Si](CCC(F)(F)C(F)(F)C(F)(F)C(F)(F)C(F)(F)C(F)(F)C(F)(F)C(F)(F)F)(C(C)C)C(C)C)N(S(=O)(=O)c3ccccc3[N+](=O)[O-])CC3=CC=C(CN(S(=O)(=O)c4ccccc4[N+](=O)[O-])C(=O)OC2)S3)c(OC)c1` [21 (15+9, from 20; 2 steps RCM + denosylation; E/Z 65:35)] returned a ring closure, isolated yield (from C=CCOC[C@@H](COC(=O)N(Cc1ccc(CN([C@H](CC=C)CO[Si](CCC(F)(F)C(F)(F)C(F)(F)C(F)(F)C(F)(F)C(F)(F)C(F)(F)C(F)(F)F)(C(C)C)C(C)C)S(=O)(=O)c2ccccc2[N+](=O)[O-])s1)S(=O)(=O)c1ccccc1[N+](=O)[O-])c1ccc(OC)cc1OC, 18-membered ring, 24.0 h) of 34%.

`CC(C)[Si](CCC(F)(F)C(F)(F)C(F)(F)C(F)(F)C(F)(F)C(F)(F)C(F)(F)C(F)(F)F)(OC[C@H]1CC=CCC[C@@H](O[Si](C)(C)C(C)(C)C)[C@H](C)CN(S(=O)(=O)C(F)(F)F)Cc2ccccc2CN1S(=O)(=O)c1ccccc1[N+](=O)[O-])C(C)C` [23 (13+11, from 22; 2 steps RCM + denosylation; E/Z 30:70)]: under “from C=CCC[C@@H](O[Si](C)(C)C(C)(C)C)[C@H](C)CN(Cc1ccccc1CN([C@H](CC=C)CO[Si](CCC(F)(F)C(F)(F)C(F)(F)C(F)(F)C(F)(F)C(F)(F)C(F)(F)C(F)(F)F)(C(C)C)C(C)C)S(=O)(=O)c1ccccc1[N+](=O)[O-])S(=O)(=O)C(F)(F)F, 15-membered ring”, the ring closure, isolated yield is 84%.

`COc1ccc([C@H]2COCC=CCOC[C@H](CO[Si](CCC(F)(F)C(F)(F)C(F)(F)C(F)(F)C(F)(F)C(F)(F)C(F)(F)C(F)(F)F)(C(C)C)C(C)C)N(S(=O)(=O)c3ccccc3[N+](=O)[O-])Cc3cccc(c3)CN(S(=O)(=O)c3ccccc3[N+](=O)[O-])C(=O)OC2)c(OC)c1` [36 (17+9; E/Z 25:75)] came in with a ring closure, isolated yield (from C=CCOC[C@@H](COC(=O)N(Cc1cccc(CN([C@H](COCC=C)CO[Si](CCC(F)(F)C(F)(F)C(F)(F)C(F)(F)C(F)(F)C(F)(F)C(F)(F)C(F)(F)F)(C(C)C)C(C)C)S(=O)(=O)c2ccccc2[N+](=O)[O-])c1)S(=O)(=O)c1ccccc1[N+](=O)[O-])c1ccc(OC)cc1OC, 20-membered ring, 24.0 h) of 76%.

Take `CC(C)[Si](CCC(F)(F)C(F)(F)C(F)(F)C(F)(F)C(F)(F)C(F)(F)C(F)(F)C(F)(F)F)(OC[C@H]1CC=CCC[C@@H](O[Si](C)(C)C(C)(C)C)[C@H](C)CN(S(=O)(=O)C(F)(F)F)Cc2cccc(c2)CN1S(=O)(=O)c1ccccc1[N+](=O)[O-])C(C)C` [29 (14+11; E/Z 15:85)]: the ring closure, isolated yield (from C=CCC[C@@H](O[Si](C)(C)C(C)(C)C)[C@H](C)CN(Cc1cccc(CN([C@H](CC=C)CO[Si](CCC(F)(F)C(F)(F)C(F)(F)C(F)(F)C(F)(F)C(F)(F)C(F)(F)C(F)(F)F)(C(C)C)C(C)C)S(=O)(=O)c2ccccc2[N+](=O)[O-])c1)S(=O)(=O)C(F)(F)F, 16-membered ring, 4.0 h) came to 78%.

For the setting “from C=CCOc1ccccc1COC(=O)N(Cc1ccccc1CN([C@H](CC=C)CO[Si](CCC(F)(F)C(F)(F)C(F)(F)C(F)(F)C(F)(F)C(F)(F)C(F)(F)C(F)(F)F)(C(C)C)C(C)C)S(=O)(=O)c1ccccc1[N+](=O)[O-])S(=O)(=O)c1ccccc1[N+](=O)[O-], 17-membered ring, 24.0 h”, `CC(C)[Si](CCC(F)(F)C(F)(F)C(F)(F)C(F)(F)C(F)(F)C(F)(F)C(F)(F)C(F)(F)F)(OC[C@H]1CC=CCOc2ccccc2COC(=O)N(S(=O)(=O)c2ccccc2[N+](=O)[O-])Cc2ccccc2CN1S(=O)(=O)c1ccccc1[N+](=O)[O-])C(C)C` [25 (13+10; E/Z 65:35)] returned a ring closure, isolated yield of 56%.

With `CC(C)[Si](CCC(F)(F)C(F)(F)C(F)(F)C(F)(F)C(F)(F)C(F)(F)C(F)(F)C(F)(F)F)(OC[C@H]1CC=CCCN(S(=O)(=O)C(F)(F)F)Cc2cccc(c2)CN1S(=O)(=O)c1ccccc1[N+](=O)[O-])C(C)C` (mixture of isomers) [30 (14+12; E/Z mixture)], under “from C=CCCN(Cc1cccc(CN([C@H](CC=C)CO[Si](CCC(F)(F)C(F)(F)C(F)(F)C(F)(F)C(F)(F)C(F)(F)C(F)(F)C(F)(F)F)(C(C)C)C(C)C)S(=O)(=O)c2ccccc2[N+](=O)[O-])c1)S(=O)(=O)C(F)(F)F, 13-membered ring, 16.0 h”, the ring closure, isolated yield was determined as 47%.

Consider `CC(C)[Si](CCC(F)(F)C(F)(F)C(F)(F)C(F)(F)C(F)(F)C(F)(F)C(F)(F)C(F)(F)F)(OC[C@@H]1COCC=CCCN(S(=O)(=O)C(F)(F)F)Cc2ccccc2CN1S(=O)(=O)c1ccccc1[N+](=O)[O-])C(C)C` [35 (16+12; E/Z 70:30)], for which the ring closure, isolated yield (from C=CCCN(Cc1ccccc1CN([C@@H](COCC=C)CO[Si](CCC(F)(F)C(F)(F)C(F)(F)C(F)(F)C(F)(F)C(F)(F)C(F)(F)C(F)(F)F)(C(C)C)C(C)C)S(=O)(=O)c1ccccc1[N+](=O)[O-])S(=O)(=O)C(F)(F)F, 14-membered ring, 36.0 h) worked out at 98%.

Molecule `CC(C)[Si](CCC(F)(F)C(F)(F)C(F)(F)C(F)(F)C(F)(F)C(F)(F)C(F)(F)C(F)(F)F)(OC[C@H]1COCC=CCC[C@@H](O[Si](C)(C)C(C)(C)C)[C@H](C)C(=O)N(S(=O)(=O)c2ccccc2[N+](=O)[O-])Cc2cccc(c2)CN1S(=O)(=O)c1ccccc1[N+](=O)[O-])C(C)C` [19 (from 18; Z 50% + E 40%)] registered a ring closure, isolated yield (from C=CCC[C@@H](O[Si](C)(C)C(C)(C)C)[C@H](C)C(=O)N(Cc1cccc(CN([C@H](COCC=C)CO[Si](CCC(F)(F)C(F)(F)C(F)(F)C(F)(F)C(F)(F)C(F)(F)C(F)(F)C(F)(F)F)(C(C)C)C(C)C)S(=O)(=O)c2ccccc2[N+](=O)[O-])c1)S(=O)(=O)c1ccccc1[N+](=O)[O-], 18-membered ring, 48.0 h) of 90%.

Turning to `CC(C)[Si](CCC(F)(F)C(F)(F)C(F)(F)C(F)(F)C(F)(F)C(F)(F)C(F)(F)C(F)(F)F)(OC[C@H]1CC=CCOc2ccccc2COC(=O)N(S(=O)(=O)c2ccccc2[N+](=O)[O-])CC2=CC=C(CN1S(=O)(=O)c1ccccc1[N+](=O)[O-])S2)C(C)C` [31 (15+10; E/Z >98:<2)], under “from C=CCOc1ccccc1COC(=O)N(Cc1ccc(CN([C@H](CC=C)CO[Si](CCC(F)(F)C(F)(F)C(F)(F)C(F)(F)C(F)(F)C(F)(F)C(F)(F)C(F)(F)F)(C(C)C)C(C)C)S(=O)(=O)c2ccccc2[N+](=O)[O-])s1)S(=O)(=O)c1ccccc1[N+](=O)[O-], 18-membered ring, 16.0 h”, the ring closure, isolated yield turned out to be 60%.
